{
  "source": "patent US9221809B2",
  "about": "(MERCK SHARP & DOHME CORP., priority 2011, dated 2015)",
  "note": "Structures can show the parent of a compound that is named as a salt.",
  "data": [
    {"target": "IRAK4 (Homo sapiens (Human), UniProt Q9NWZ3)", "sequence (Q9NWZ3 whole entry)": "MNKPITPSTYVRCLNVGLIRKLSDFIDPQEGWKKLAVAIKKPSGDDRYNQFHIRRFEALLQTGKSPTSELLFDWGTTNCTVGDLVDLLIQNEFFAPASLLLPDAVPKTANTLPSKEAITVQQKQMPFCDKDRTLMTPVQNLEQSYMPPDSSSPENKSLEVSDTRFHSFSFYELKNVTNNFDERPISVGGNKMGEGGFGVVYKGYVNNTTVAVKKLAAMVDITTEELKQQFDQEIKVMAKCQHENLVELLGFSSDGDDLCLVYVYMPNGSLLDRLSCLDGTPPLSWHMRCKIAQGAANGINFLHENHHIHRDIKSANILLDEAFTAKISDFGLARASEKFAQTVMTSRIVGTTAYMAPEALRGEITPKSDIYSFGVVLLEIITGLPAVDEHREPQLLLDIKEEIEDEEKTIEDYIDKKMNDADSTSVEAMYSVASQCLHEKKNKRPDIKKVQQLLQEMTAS", "experiment": "IRAK4 kinase activity, IMAP fluorescence polarization assay", "assay_type": "biochemical", "conditions": "100 μM ATP, 0.5 nM GST tagged IRAK4; read-out: IRAK4 IC50", "how_it_was_run": "(§1)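 GST-tagged IRAK4 at 0.5 nM phosphorylates 100 nM fluorescent peptide substrate with 100 μM ATP in pH 7.2 Tris buffer containing MgCl2, DTT and Tween 20, 30 min at 25 °C. Reaction stopped with IMAP binding reagent; phosphorylation read as increased fluorescence polarization.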", "units": {"IC50": "nM"}, "values": [
      {"compound": "O=c1[nH]c(Nc2ccccc2)nc(N[C@@H]2C[C@H](CO)[C@@H](O)[C@H]2O)c1-c1nc2ccccc2s1", "note": "[Example 53, 5-(Benzo[d]thiazol-2-yl)-6-((1R,2S,3R,4R)-2,3-dihydroxy-4-(hydroxymethyl)cyclopentylamino)-2-(phenylamino)pyrimidin-4(3H)-one.HCl]", "IC50": 327},
      {"compound": "O=c1[nH]c(Nc2cncnc2)nc(N[C@@H]2C[C@H](CO)[C@@H](O)[C@H]2O)c1-c1nc2ccccc2s1", "note": "[Example 51, 5-(Benzo[d]thiazol-2-yl)-6-(((1R,2S,3R,4R)-2,3-dihydroxy-4-(hydroxymethyl)cyclopentyl)amino)-2-(pyrimidin-5-ylamino)pyrimidin-4(3H)-one.HCl]", "IC50": 345},
      {"compound": "NCCNc1cccc2sc(-c3c(N[C@@H]4CCCNC4)nc(N4CCOCC4)[nH]c3=O)nc12", "note": "[Example 356, 5-[4-[(2-aminoethyl)amino]-1,3-benzothiazol-2-yl]-2-(morpholin-4-yl)-6-[[(3R)-piperidin-3-yl]amino]-3,4-dihydropyrimidin-4-one]", "IC50": 16},
      {"compound": "Cc1cccc(-c2c(N[C@@H]3C[C@H](CO)[C@@H](O)[C@H]3O)nc(N3CCCCC3)[nH]c2=O)n1", "note": "[Example 35, 6-(((1R,2S,3R,4R)-2,3-Dihydroxy-4-(hydroxymethyl)cyclopentyl)amino)-5-(6-methylpyridin-2-yl)-2-(piperidin-1-yl)pyrimidin-4(3H)-one.HCl]", "IC50": 296},
      {"compound": "O=c1[nH]c(N2CCOCC2)nc(N[C@@H]2CCNC2)c1-c1nc2ccccc2s1", "note": "[Example 87, (R)-5-(Benzo[d]thiazol-2-yl)-2-morpholino-6-(pyrrolidin-3-ylamino)pyrimidin-4(3H)-one.HCl]", "IC50": 36},
      {"compound": "C[C@H]1CC[C@@H](Nc2nc(N3CCOCC3)[nH]c(=O)c2-c2ccc3ccccc3n2)CN1", "note": "(racemic) [Example 122, 6-(methylpiperidin-3-yl)amino-2-morpholino-5-(quinolin-2-yl)pyrimidin-4(3H)-one.HCl]", "IC50": 541},
      {"compound": "O=c1[nH]c(N2CCOCC2)nc(N[C@@H]2CCCNC2)c1-c1nc2cc(F)ccc2s1", "note": "[Example 97, (R)-5-(5-Fluorobenzo[d]thiazol-2-yl)-2-morpholino-6-(piperidin-3-ylamino)pyrimidin-4(3H)-one.HCl]", "IC50": 8.4}
    ]},
    {"target": "IRAK4 (Homo sapiens (Human), UniProt Q9NWZ3)", "experiment": "IRAK4 kinase activity, IMAP fluorescence polarization assay", "assay_type": "biochemical", "conditions": "100 μM ATP; read-out: IC50", "how_it_was_run": "as §1", "units": {"IC50": "nM"}, "values": [
      {"compound": "O=C(O)C1CN(c2nc(N[C@@H]3CCCNC3)c(-c3nc4ccccc4s3)c(=O)[nH]2)CCO1", "note": "(stereo partly drawn) [Example 320, 4-[5-(1,3-benzothiazol-2-yl)-6-oxo-4-[[(3R)-piperidin-3-yl]amino]-1,6-dihydropyrimidin-2-yl]morpholine-2-carboxylic acid]", "IC50": 250},
      {"compound": "NC(=O)CNc1nc(N2CCOCC2)[nH]c(=O)c1-c1nc2ccccc2s1", "note": "[Example 249, 2-[[5-(1,3-benzothiazol-2-yl)-2-(morpholin-4-yl)-6-oxo-1,6-dihydropyrimidin-4-yl]amino]acetamide]", "IC50": 3900},
      {"compound": "O=c1[nH]c(N2CCC(NCc3ccccc3)CC2)nc(N[C@@H]2CCCNC2)c1-c1nc2ccccc2s1", "note": "[Example 332, 5-(1,3-benzothiazol-2-yl)-2-[4-(benzylamino)piperidin-1-yl]-6-[[(3R)-piperidin-3-yl]amino]-3,4-dihydropyrimidin-4-one trifluoroacetic acid]", "IC50": 110},
      {"compound": "NC1CCN(c2nc(N[C@@H]3CCCNC3)c(-c3nc4ccccc4s3)c(=O)[nH]2)CC1", "note": "[Example 322, 2-(4-aminopiperidin-1-yl)-5-(1,3-benzothiazol-2-yl)-6-[[(3R)-piperidin-3-yl]amino]-3,4-dihydropyrimidin-4-one; trifluoroacetic acid]", "IC50": 240},
      {"compound": "CCN1CCCC1CNc1nc(N2CCOCC2)[nH]c(=O)c1-c1ccc2ccccc2n1", "note": "(centres unmarked) [Example 277, 6-((1-ethylpyrrolidin-2-yl)methylamino)-2-morpholino-5-(quinolin-2-yl)pyrimidin-4(3H)-one]", "IC50": 1600},
      {"compound": "O=c1[nH]c(N2CC[C@H](O)C2)nc(N[C@@H]2CCCNC2)c1-c1nc2ccccc2s1", "note": "[Example 306, 5-(benzo[d]thiazol-2-yl)-2-((S)-3-hydroxy-pyrrolidin-1-yl)-6-((R)-piperidin-3-ylamino)pyrimidin-4(3H)-one bis(2,2,2-trifluoro-acetate)]", "IC50": 23},
      {"compound": "O=c1[nH]c(N[C@H]2c3ccccc3C[C@@H]2O)nc(N[C@@H]2CCCNC2)c1-c1nc2ccccc2s1", "note": "[Example 291, 5-(benzo[d]thiazol-2-yl)-2-((1S,2S)-2-hydroxy-2,3-dihydro-1H-inden-1-ylamino)-6-((R)-piperidin-3-ylamino)pyrimidin-4(3H)-one]", "IC50": 3000}
    ]},
    {"target": "IRAK4 (Homo sapiens (Human), UniProt Q9NWZ3)", "experiment": "IRAK4 kinase activity, IMAP fluorescence polarization assay", "assay_type": "biochemical", "conditions": "100 μM ATP; read-out: IRAK4 IC50", "how_it_was_run": "as §1", "units": {"IC50": "nM"}, "values": [
      {"compound": "O=c1[nH]c(N2CCN(c3cccc(C(F)(F)F)c3)CC2)nc(N[C@@H]2CCCNC2)c1-c1nc2ccccc2s1", "note": "[Example 152, (R)-5-(benzo[d]thiazol-2-yl)-6-(piperidin-3-ylamino)-2-(4-(3-(trifluoromethyl)phenyl)piperazin-1-yl)pyrimidin-4(3H)-one]", "IC50": 42},
      {"compound": "O=c1[nH]c(N2CCCC2c2ccncc2)nc(N[C@@H]2CCCNC2)c1-c1ccc2ccccc2n1", "note": "(stereo partly drawn) [Example 182, 6-((R)-piperidin-3-ylamino)-2-(2-(pyridin-4-yl)pyrrolidin-1-yl)-5-(quinolin-2-yl)pyrimidin-4(3H)-one]", "IC50": 3180},
      {"compound": "O=c1[nH]c(N2CC[C@H](CO)C2)nc(N[C@@H]2CCCNC2)c1-c1ccc2ccccc2n1", "note": "[Example 180, 2-((S)-3-(hydroxymethyl)pyrrolidin-1-yl)-6-((R)-piperidin-3-ylamino)-5-(quinolin-2-yl)pyrimidin-4(3H)-one]", "IC50": 15},
      {"compound": "COc1ccccc1C1CCN(c2nc(N[C@@H]3CCCNC3)c(-c3ccc4ccccc4n3)c(=O)[nH]2)CC1", "note": "[Example 189, (R)-2-(4-(2-methoxyphenyl)piperidin-1-yl)-6-(piperidin-3-ylamino)-5-(quinolin-2-yl)pyrimidin-4(3H)-one]", "IC50": 13},
      {"compound": "O=c1[nH]c(N2CCC(c3ccccc3)CC2)nc(N[C@@H]2CCCNC2)c1-c1ccc2ccccc2n1", "note": "[Example 187, (R)-2-(4-phenylpiperidin-1-yl)-6-(piperidin-3-ylamino)-5-(quinolin-2-yl)pyrimidin-4(3H)-one]", "IC50": 16},
      {"compound": "O=c1[nH]c(N2CCN(c3cccc(Cl)n3)CC2)nc(N[C@@H]2CCCNC2)c1-c1nc2ccccc2s1", "note": "[Example 137, (R)-5-(benzo[d]thiazol-2-yl)-2-(4-(6-chloropyridin-2-yl)piperazin-1-yl)-6-(piperidin-3-ylamino)pyrimidin-4(3H)-one]", "IC50": 25},
      {"compound": "O=c1[nH]c(N2CCN(c3ccc(Cl)cn3)CC2)nc(N[C@@H]2CCCNC2)c1-c1nc2ccccc2s1", "note": "[Example 144, (R)-5-(benzo[d]thiazol-2-yl)-2-(4-(5-chloropyridin-2-yl)piperazin-1-yl)-6-(piperidin-3-ylamino)pyrimidin-4(3H)-one]", "IC50": 8},
      {"compound": "CC1CN(c2nc(N[C@@H]3CCCNC3)c(-c3nc4ccccc4s3)c(=O)[nH]2)CCO1", "note": "(stereo partly drawn) [Example 126, 5-(benzo[d]thiazol-2-yl)-2-(2-methylmorpholino)-6-((R)-piperidin-3-ylamino)pyrimidin-4(3H)-one]", "IC50": 97},
      {"compound": "O=c1[nH]c(N2CCN(c3nccs3)CC2)nc(N[C@@H]2CCCNC2)c1-c1nc2ccccc2s1", "note": "[Example 149, (R)-5-(benzo[d]thiazol-2-yl)-6-(piperidin-3-ylamino)-2-(4-(thiazol-2-yl)piperazin-1-yl)pyrimidin-4(3H)-one]", "IC50": 12},
      {"compound": "CC(=O)NC1CCN(c2nc(N[C@@H]3CCCNC3)c(-c3ccc4ccccc4n3)c(=O)[nH]2)C1", "note": "(stereo partly drawn) [Example 165, N-(1-(6-oxo-4-((R)-piperidin-3-ylamino)-5-(quinolin-2-yl)-1,6-dihydropyrimidin-2-yl)pyrrolidin-3-yl)acetamide]", "IC50": 54}
    ]},
    {"target": "IRAK4 (Homo sapiens (Human), UniProt Q9NWZ3)", "experiment": "IRAK4 kinase activity, IMAP fluorescence polarization assay", "assay_type": "biochemical", "conditions": "unit inferred; 100 μM ATP; read-out: IRAK4 IC50", "how_it_was_run": "as §1", "units": {"IC50": "nM"}, "values": [
      {"compound": "CC(=O)NCC1CCN(c2nc(N[C@@H]3C[C@H](CO)[C@@H](O)[C@H]3O)c(-c3nc4ccccc4s3)c(=O)[nH]2)CC1", "note": "[Example 79, N-((1-(5-(benzo[d]thiazol-2-yl)-4-((1R,2S,3R,4R)-2,3-dihydroxy-4-(hydroxymethyl)cyclopentylamino)-6-oxo-1,6-dihydropyrimidin-2-yl)piperidin-4-yl)methyl)acetamide]", "IC50": 36.7},
      {"compound": "O=c1[nH]c(N2CCC(c3cncnc3)CC2)nc(N[C@@H]2C[C@H](CO)[C@@H](O)[C@H]2O)c1-c1nc2ccccc2s1", "note": "[Example 64, 5-(benzo[d]thiazol-2-yl)-6-((1R,2S,3R,4R)-2,3-dihydroxy-4-(hydroxymethyl)cyclopentylamino)-2-(4-(pyrimidin-5-yl)piperidin-1-yl)pyrimidin-4(3H)-one]", "IC50": 6.2}
    ]}
  ]
}
